Patent US7323598B2, “Preparation of xylylenediamine (XDA)” (BASF Aktiengesellschaft, priority 2003, dated 2008)

Test: Investigations of solubility of IPN in different solvents
Type: physicochemical
Settings: for solubility of IPN in NMP: solvent NMP; for solubility of IPN in mesitylene: solvent mesitylene; for solubility of IPN in pseudocumene: solvent pseudocumene
Experimental: Investigations of Solubility of IPN in Different Solvents
At 60° C., the solubility of IPN in mesitylene or pseudocumene is in each case below 10% by weight.

N#Cc1cccc(C#N)c1 [IPN, 1,3-dicyanobenzene]
solubility of IPN in NMP (60° C.): approx. 26 % by weight
solubility of IPN in NMP (90° C.): approx. 41 % by weight
solubility of IPN in mesitylene (60° C.): below 10 % by weight
solubility of IPN in mesitylene (90° C.): 12 % by weight
solubility of IPN in pseudocumene (60° C.): below 10 % by weight
solubility of IPN in pseudocumene (90° C.): 20 % by weight
